Measured values taken from PubChem BioAssay (NCI).
“And” between values parts separate entries of the source, which are not always exact repeats. Identical values can stand only once.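 Assay format: 96-well plates, 48-hour exposure. The concentration for 50% growth inhibition is given as GI50. TGI denotes the concentration required for complete inhibition of growth.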

What was measured:
Assay in all cases: growth of human tumour cells (NCI), 48 h
[1] = test system: SK-MEL-5 melanoma
[2] = test system: HT29 colon
[3] = test system: RXF 393 renal
[4] = test system: HL-60(TB) leukemia
[5] = test system: NCI-H226 lung
[6] = test system: 786-0 renal
[7] = test system: K-562 leukemia
[8] = test system: HCT-116 colon
[9] = test system: IGROV1 ovarian
[10] = test system: CCRF-CEM leukemia

Structure (SMILES)	TGI [1]	TGI [2]	TGI [3] [µM]	TGI [4]	TGI [5]	TGI [6] [µM]	TGI [7]	TGI [8] [µM]	TGI [9] [µM]	TGI [10]	GI50 [5] [µM]	GI50 [1]	GI50 [3] [µM]	GI50 [9] [µM]	GI50 [4] [µM]	GI50 [7] [µM]	GI50 [10] [µM]
COc1ccc(C#Cn2nnc3ccccc32)cc1	> 100 µM	> 100 µM	> 100	60.6 µM	> 100 µM	> 100	> 100 µM	> 100	> 100	–	–	–	–	–	–	–	–
Cc1cccc2c(N)c3cccc(C(=O)NCC[N+](C)(C)Cc4ccc([N+](=O)[O-])s4)c3nc12	28.2 µM	23.6 µM	25.9	–	21.9 µM	27.8	27.9 µM	> 100	26	24.4 µM	–	–	–	–	–	–	–
Clc1sc(Cl)c2c1[C@@H](Cl)C[C@@H]2Cl	> 100 µM	> 100 µM	–	–	> 100 µM	> 100	> 100 µM	> 100	> 100	> 100 µM	–	–	–	–	–	–	–
CCC1(O)CC(OC2CC(N(C)C)C(OC3CC(O)C(OC4OC(C)C(=O)C=C4N)C(C)O3)C(C)O2)c2c(cc3c(c2O)C(=O)c2c(O)cccc2C3=O)C1C(=O)OC (centres undefined)	0.179 µM and 0.101 µM	0.431 µM and 1.24 µM	–	0.5 µM and 0.079 µM	0.347 µM and 0.0894 µM	0.0971	0.262 µM and 1.73 µM	1.79	–	0.131 µM and 0.818 µM	0.0161	–	–	–	–	–	–
NS(=O)(=O)c1nc(S(=O)(=O)O)c2[nH]cnc2n1	> 100 µM	> 100 µM	> 100	–	> 100 µM	> 100	> 100 µM	> 100	> 100	–	–	–	–	–	–	–	–
C(/C=N/NC1=NCCCCN1)=N\NC1=NCCCCN1	> 100 µM	> 100 µM	–	–	> 100 µM	> 100	> 100 µM	> 100	> 100	> 100 µM	–	–	–	–	–	–	–
O=c1c2cc(C(F)(F)F)ccc2sc2c(NCCCNCCO)nc3ccccc3c12	3.01 µM	–	2.82	–	–	–	–	–	2.62	–	–	1.62 µM	1.4	1.23	–	–	–
C[C@@H]1[C@@H](C)C(c2ccccc2)O[Si]1(C(C)(C)C)C(C)(C)C (some centres undefined)	31.5 µM	31 µM	31	–	40.9 µM	29.4	63.6 µM	28.8	31	46.2 µM	–	–	–	–	–	–	–
O=C(CCN1CCOCC1)/C(=C/c1ccccc1)c1ccccc1	21.5 µM	17.6 µM	3.4	4.19 µM	21.3 µM	–	4.24 µM	12.3	22.8	–	–	–	–	–	–	–	–
CC(C(=O)OCc1ccccc1)N(Cc1ccccc1)Cc1ccccc1 (centres undefined)	> 100 µM	> 100 µM	88	79.2 µM	–	–	> 100 µM	> 100	> 100	> 100 µM	–	–	–	–	–	–	–
C#C[C@]1(O)CC[C@H]2[C@@H]3CCC4=C/C(=N/NC(=O)c5cccc6c(=O)c7ccccc7[nH]c56)CCC4[C@H]3CC[C@@]21C (some centres undefined)	64.8 µM	> 100 µM	–	> 100 µM	> 100 µM	> 100	> 100 µM	> 100	> 100	> 100 µM	–	–	–	–	–	–	–
N#Cc1nc2cc(Cl)ccc2nc1N1CCN(c2ccc([N+](=O)[O-])cc2)CC1	> 100 µM	> 100 µM	> 100	–	–	> 100	> 100 µM	> 100	–	–	–	–	–	–	–	–	–
COC(C/C(=C/CO[Si](C(C)C)(C(C)C)C(C)C)C(=O)N(COCC[Si](C)(C)C)c1ccccc1I)OC	> 100 µM	> 100 µM	–	–	> 100 µM	> 100	> 100 µM	46.2	27.4	> 100 µM	–	–	–	–	–	–	–
CC(C)(C)c1ccc(C(O)CCCN2CCC(C(O)(c3ccccc3)c3ccccc3)CC2)cc1 (centres undefined)	2.93 µM and 23.5 µM	2.23 µM and 20.9 µM	2.27	3.97 µM	–	–	5.14 µM	–	–	5.8 µM	–	1.59 µM and 13.8 µM	1.08	–	2.16	2.18	2
Cc1cc2[nH]c3c(C#N)c(-c4ccccc4)c(N=Nc4ccc(F)cc4)c(=O)n3c2cc1C	> 100 µM	–	> 100	–	> 100 µM	> 100	–	> 100	–	> 100 µM	–	–	–	–	–	–	–
COc1cccc(N=N/C(=N/NC(=O)c2ccc(C)cc2)c2ccc(N(CCC#N)CCC#N)cc2OC)c1	> 100 µM	35.5 µM	> 100	–	> 100 µM	> 100	> 100 µM	> 100	> 100	> 100 µM	–	–	–	–	–	–	–
CC(C)(C)OC(=O)NC12C3C4C1C1C2C3C41NC(=O)OC(C)(C)C (centres undefined)	> 100 µM	> 100 µM	84.4	53.9 µM	–	> 100	> 100 µM	> 100	> 100	61.7 µM	–	–	–	–	–	–	–
O=P1(N2CCOCC2)OCCO1	> 100 µM	> 100 µM	> 100	> 100 µM	–	> 100	> 100 µM	> 100	> 100	> 100 µM	–	–	–	–	–	–	–
